Data published in patent US20240158446A1, “CYCLIC COMPOUND HAVING SELECTIVE INHIBITORY ACTION ON KRAS OVER HRAS AND NRAS” (CHUGAI SEIYAKU KABUSHIKI KAISHA, priority 2021, published 2024).
Read-outs that look alike come from different tables or passages of the source.

Columns and labels:
[1] = molecular target: GDP-bound HRAS wild-type protein (Homo sapiens, UniProt P01112); assay: Binding to HRAS by surface plasmon resonance (SPR), Single Cycle Kinetics; conditions: for HRAS/KRAS (ratio of KD value with respect to GDP-bound HRAS wild-type protein to KD value with respect to KRAS): SPR KD ratio HRAS/KRAS, class symbols
Chain of GDP-bound HRAS wild-type protein (P01112 whole entry): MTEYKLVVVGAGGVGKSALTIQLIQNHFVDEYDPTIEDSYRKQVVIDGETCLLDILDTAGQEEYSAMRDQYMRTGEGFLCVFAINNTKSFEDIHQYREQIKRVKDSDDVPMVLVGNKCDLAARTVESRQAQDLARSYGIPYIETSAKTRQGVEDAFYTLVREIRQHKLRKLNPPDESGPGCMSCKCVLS

[2] = molecular target: GDP-bound NRAS wild-type protein (Homo sapiens, UniProt P01111); assay: Binding to NRAS by surface plasmon resonance (SPR), Single Cycle Kinetics; conditions: for NRAS/KRAS (ratio of KD value with respect to GDP-bound NRAS wild-type protein to KD value with respect to KRAS): SPR KD ratio NRAS/KRAS, class symbols
Chain of GDP-bound NRAS wild-type protein (P01111 whole entry): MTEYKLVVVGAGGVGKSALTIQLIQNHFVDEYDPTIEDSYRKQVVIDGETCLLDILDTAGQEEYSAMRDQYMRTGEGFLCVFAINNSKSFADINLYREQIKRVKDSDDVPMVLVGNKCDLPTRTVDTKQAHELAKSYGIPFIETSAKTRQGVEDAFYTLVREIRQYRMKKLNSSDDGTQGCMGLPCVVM

[3] = molecular target: GDP-bound KRAS wild-type protein (Homo sapiens, UniProt P01116); assay: Binding to KRAS by surface plasmon resonance (SPR), Single Cycle Kinetics; conditions: GDP-bound KRAS wild-type protein, read-out: KRAS KD
Chain of GDP-bound KRAS wild-type protein (P01116 whole entry): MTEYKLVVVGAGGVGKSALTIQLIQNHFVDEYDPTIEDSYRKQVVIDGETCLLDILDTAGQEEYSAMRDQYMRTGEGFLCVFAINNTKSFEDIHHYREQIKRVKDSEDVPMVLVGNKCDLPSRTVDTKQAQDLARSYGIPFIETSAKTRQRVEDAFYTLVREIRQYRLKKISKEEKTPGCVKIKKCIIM

[4] = system: human lung cancer strain NCI-H441;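 also: cell proliferation inhibition after four days measured by CellTiter-Glo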
[5] = SPR Single Cycle Kinetics, 1:1 binding model
[6] = SPR, GDP-bound HRAS wild-type protein vs GDP-bound KRAS wild-type protein
[7] = SPR, GDP-bound NRAS wild-type protein vs GDP-bound KRAS wild-type protein

IC50 [4]	Kd ([3]; SPR, Single Cycle Kinetics)	Structure (SMILES)	HRAS/KRAS (ratio of KD value for HRAS to KD value for KRAS) [1, 6]	NRAS/KRAS (ratio of KD value for NRAS to KD value for KRAS) [2, 7]	further results
15.9 nM	0.3 nM	CCCO[C@H](C)[C@@H]1NC(=O)[C@H](CC(C)C)N(C)C(=O)C[C@@H](C(=O)N(C)CC)N(C)C(=O)[C@H](C2CCCC2)N(C)C(=O)C2(CC(C)(C)C2)NC(=O)[C@@H]2C[C@H](C)CN2C(=O)[C@H](CCc2cc(F)c(C(F)(F)F)c(F)c2)NC(=O)CN(C)C(=O)[C@H](Cc2ccc(C)cc2)N2CC/C=C\C[C@@H](C2=O)N(C)C(=O)CN(C)C1=O [PP2417]	A (a compound having 10 or more and less than 20 is denoted as A)	A (a compound having 10 or more and less than 20 is denoted as A)	
357 nM	1.2 nM	CC[C@H](C)[C@@H]1NC(=O)[C@H](CC)N(C)C(=O)C[C@@H](C(=O)N(C)C)N(C)C(=O)[C@H](C2CCCC2)N(C)C(=O)C2(CCC2)NC(=O)[C@H](COCCC(C)C)N(C)C(=O)[C@H](CCc2cc(F)c(C(F)(F)F)c(F)c2)NC(=O)CN(C)C(=O)[C@H](Cc2ccc(C(F)(F)F)cc2)N2CC/C=C\C[C@@H](C2=O)N(C)C(=O)CN(C)C1=O [PP1148]	A (a compound having 10 or more and less than 20 is denoted as A)	A (a compound having 10 or more and less than 20 is denoted as A)	
13.3 nM	0.17 nM	CCOC[C@H]1C(=O)N[C@@H]([C@@H](C)CC)C(=O)N(C)CC(=O)N(C)[C@H]2C/C=C\CCN(C2=O)[C@@H](Cc2ccc(C)cc2)C(=O)N(C)CC(=O)N[C@@H](CCc2cc(F)c(C(F)(F)F)c(F)c2)C(=O)N2C[C@@H](C)C[C@H]2C(=O)NC2(CC(C)(C)C2)C(=O)N(C)[C@@H](C2CCCC2)C(=O)N(C)[C@H](C(=O)N(C)CC)CC(=O)N1C [PP2457]	A (a compound having 10 or more and less than 20 is denoted as A)	A (a compound having 10 or more and less than 20 is denoted as A)	
1.6 nM	0.19 nM	CCC[C@@H]1C[C@H]2C(=O)NC3(CC(C)(C)C3)C(=O)N(C)[C@@H](C3CCCC3)C(=O)N(C)[C@H](C(=O)N(C)C)CC(=O)N(C)[C@@H](C)C(=O)N[C@@H]([C@@H](C)CC)C(=O)N(C)CC(=O)N(C)[C@H]3C/C=C\CCN(C3=O)[C@@H](Cc3ccc(C(F)(F)F)cc3)C(=O)N(C)CC(=O)N[C@@H](CCc3cc(F)c(C(F)(F)F)c(F)c3)C(=O)N2C1 [PP2273]	A (a compound having 10 or more and less than 20 is denoted as A)	AA (a compound having 20 or more is denoted as AA)	
71.9 nM		CCOC[C@H]1C(=O)N[C@@H]([C@@H](C)CC)C(=O)N(C)CC(=O)N(C)[C@H]2C/C=C\CCN(C2=O)[C@@H](Cc2ccc(C(F)(F)F)cc2)C(=O)N(C)CC(=O)N[C@@H](CCc2cc(F)c(C(F)(F)F)c(F)c2)C(=O)N2C[C@H](OCC)C[C@H]2C(=O)NC2(CC(C)(C)C2)C(=O)N(C)[C@@H](CC2CCC2)C(=O)N(C)[C@H](C(=O)N(C)C)CC(=O)N1C [PP2763]			HRAS/KRAS (ratio of KD value with respect to GDP-bound HRAS wild-type protein to KD value with respect to KRAS) [1]: A (a compound having 10 or more and less than 20 is denoted as A); NRAS/KRAS (ratio of KD value with respect to GDP-bound NRAS wild-type protein to KD value with respect to KRAS) [2]: A (a compound having 10 or more and less than 20 is denoted as A); Kd [3, 5]: 0.86 nM
23.4 nM	0.32 nM	CC[C@H](C)[C@@H]1NC(=O)[C@H](COC)N(C)C(=O)C[C@@H](C(=O)N(CC)CC)N(C)C(=O)[C@H](C2CCCC2)N(C)C(=O)C2(CC(C)(C)C2)NC(=O)[C@@H]2C[C@H](C)CN2C(=O)[C@H](CCc2cc(F)c(C(F)(F)F)c(F)c2)NC(=O)CN(C)C(=O)[C@H](Cc2ccc(C)cc2)N2CC/C=C\C[C@@H](C2=O)N(C)C(=O)CN(C)C1=O [PP2455]	A (a compound having 10 or more and less than 20 is denoted as A)	AA (a compound having 20 or more is denoted as AA)	
55.5 nM	0.78 nM	CCO[C@@H]1C[C@H]2C(=O)NC3(CC(C)(C)C3)C(=O)N(C)[C@@H](C(CC)CC)C(=O)N(C)[C@H](C(=O)N(C)C)CC(=O)N(C)[C@@H](CC3CC3)C(=O)N[C@@H]([C@@H](C)CC)C(=O)N(C)CC(=O)N(C)[C@H]3C/C=C\CCN(C3=O)[C@@H](CC3CCC(F)(F)CC3)C(=O)N(C)CC(=O)N[C@@H](CCc3cc(F)c(C(F)(F)F)c(F)c3)C(=O)N2C1 [PP2485]	A (a compound having 10 or more and less than 20 is denoted as A)	A (a compound having 10 or more and less than 20 is denoted as A)	

More lines, now with the values behind:

Structure (SMILES)	IC50 [4]	Kd ([3]; SPR, Single Cycle Kinetics)	HRAS/KRAS (ratio of KD value for HRAS to KD value for KRAS) [1, 6]	NRAS/KRAS (ratio of KD value for NRAS to KD value for KRAS) [2, 7]	further results
CCC[C@H]1C(=O)N[C@@H]([C@@H](C)CC)C(=O)N(C2CC2)CC(=O)N(C)[C@H]2C/C=C\CCN(C2=O)[C@@H](Cc2ccc(C(F)(F)F)cc2)C(=O)N(C)CC(=O)N[C@@H](CCc2ccc(C(F)(F)F)c(OC)c2)C(=O)N2C[C@H](OCC)C[C@H]2C(=O)NC2(CC(C)(C)C2)C(=O)N(C)[C@@H](CC(C)(C)C)C(=O)N(C)[C@H](C(=O)N(C)C)CC(=O)N1C [PP2746]	10.2 nM				HRAS/KRAS (ratio of KD value with respect to GDP-bound HRAS wild-type protein to KD value with respect to KRAS) [1]: A (a compound having 10 or more and less than 20 is denoted as A); NRAS/KRAS (ratio of KD value with respect to GDP-bound NRAS wild-type protein to KD value with respect to KRAS) [2]: A (a compound having 10 or more and less than 20 is denoted as A); Kd [3, 5]: 0.28 nM
CCO[C@@H]1C[C@H]2C(=O)NC3(CCC3)C(=O)N(C)[C@@H](C3CCCC3)C(=O)N(C)[C@H](C(=O)N3CCOCC3)CC(=O)N(C)[C@@H](CC)C(=O)N[C@@H]([C@@H](C)CC)C(=O)N(C)CC(=O)N(C)[C@H]3C/C=C\CCN(C3=O)[C@@H](Cc3ccc(C(F)(F)F)cc3)C(=O)N(C)CC(=O)N[C@@H](CCc3ccc(C(F)(F)F)c(Cl)c3)C(=O)N2C1 [PP1281, (2S,8S,12R,14S,20S,23S,27S,30S,36S,38Z)-8-[2-[3-chloro-4-(trifluoromethyl)phenyl]ethyl]-20-cyclopentyl-12-ethoxy-27-ethyl-4,19,22,26,32,35-hexamethyl-30-[(1S)-1-methylpropyl]-23-(morpholine-4-carbonyl)-2-[[4-(trifluoromethyl)phenyl]methyl]spiro[1,4,7,10,16,19,22,26,29,32,35-undecazatricyclo[34.5.1.0^10,14]dotetracont-38-ene-17,1′-cyclobutane]-3,6,9,15,18,21,25,28,31,34,42-undecone]	10.2 nM				HRAS/KRAS (ratio of KD value for HRAS to KD value for KRAS) ([1]; SPR, GDP-bound HRAS wild-type protein vs GDP-bound KRAS wild-type protein, KD ratio class): A (a compound having 10 or more and less than 20 is denoted as A); NRAS/KRAS (ratio of KD value for NRAS to KD value for KRAS) ([2]; SPR, GDP-bound NRAS wild-type protein vs GDP-bound KRAS wild-type protein, KD ratio class): AA (a compound having 20 or more is denoted as AA); Kd ([3]; SPR, Single Cycle Kinetics, 1:1 binding model): 0.14 nM
CCCOC[C@H]1C(=O)N[C@@H]([C@@H](C)CC)C(=O)N(C2CC2)CC(=O)N(C)[C@H]2C/C=C\CCN(C2=O)[C@@H](CC2CCC(F)(F)CC2)C(=O)N(C)CC(=O)N[C@@H](CCc2ccc(C(F)(F)F)c(OC)c2)C(=O)N2C[C@@H](C)C[C@H]2C(=O)N(C)C2(CCC2)C(=O)N(C)[C@@H](C2CCCC2)C(=O)N(C)[C@H](C(=O)N(C)C)CC(=O)N1C [PP2379]	2.2 nM	0.76 nM	A (a compound having 10 or more and less than 20 is denoted as A)	A (a compound having 10 or more and less than 20 is denoted as A)	
CCO[C@@H]1C[C@H]2C(=O)NC3(CCC3)C(=O)N(C)[C@@H](C3CCCC3)C(=O)N(CCc3ccccc3)[C@H](C(=O)N3CCOCC3)CC(=O)N(C)[C@@H](CC(C)C)C(=O)N[C@@H]([C@@H](C)CC)C(=O)N(C)CC(=O)N(C)[C@H]3CCCCN(C3=O)[C@@H](Cc3ccc(C(F)(F)F)cc3)C(=O)N(C)CC(=O)N[C@@H](CCc3cc(F)c(C(F)(F)F)c(F)c3)C(=O)N2C1 [PP0652]	208 nM				HRAS/KRAS (ratio of KD value with respect to HRAS to KD value with respect to KRAS) [1, 6]: B (a compound having 3 or more and less than 10 is denoted as B); NRAS/KRAS (ratio of KD value with respect to NRAS to KD value with respect to KRAS) [2, 7]: B (a compound having 3 or more and less than 10 is denoted as B); Kd [3, 5]: 2.5 nM
CCO[C@@H]1C[C@H]2C(=O)NC3(CCC3)C(=O)N(C)[C@@H](C3CCCC3)C(=O)N(C)[C@H](C(=O)N3CCOCC3)CC(=O)N(C)[C@@H](Cc3ccccc3C#N)C(=O)N[C@@H]([C@@H](C)CC)C(=O)N(C)CC(=O)N(C)[C@H]3CCCCCN(C3=O)[C@@H](Cc3ccc(F)cc3)C(=O)N(C)CC(=O)N[C@@H](CCc3cc(F)c(C(F)(F)F)c(F)c3)C(=O)N2C1 [PP1185]	175 nM	0.5 nM	B (a compound having 3 or more and less than 10 is denoted as B)	B (a compound having 3 or more and less than 10 is denoted as B)	
CCO[C@@H]1C[C@H]2C(=O)NC3(CCC3)C(=O)N(C)[C@@H](C3CCCC3)C(=O)N(C)[C@H](C(=O)N3CCOCC3)CC(=O)N(C)[C@@H](Cc3ccc(Cl)c(Cl)c3)C(=O)N[C@@H]([C@@H](C)CC)C(=O)N(C)CC(=O)N(C)[C@H]3CCCCCN(C3=O)[C@@H](Cc3ccc(C(F)(F)F)cc3)C(=O)N(C)CC(=O)N[C@@H](CCc3cc(F)c(C(F)(F)F)c(F)c3)C(=O)N2C1 [PP1168]	338 nM	1.8 nM	A (a compound having 10 or more and less than 20 is denoted as A)	A (a compound having 10 or more and less than 20 is denoted as A)	
